Where two headings read alike, the source gives them in different places.
Settings: 1 mg per mL liver microsome protein, 1 μM compound, 37° C., compared to the non-isotopically enriched drug
Method: Liver microsomal stability assays were conducted at 1 mg per mL liver microsome protein with an NADPH-generating system in 2% NaHCO3 (2.2 mM NADPH, 25.6 mM glucose 6-phosphate, 6 units per mL glucose 6-phosphate dehydrogenase and 3.3 mM MgCl2). Test compounds were prepared as solutions in 20% acetonitrile-water and added to the assay mixture (final assay concentration 1 μM) and incubated at 37° C. Final concentration of acetonitrile in the assay should be <1%. Aliquots (50 μL) were taken out at times 0, 15, 30, 45, and 60 min, and diluted with ice cold acetonitrile (200 μL) to stop the reactions. Samples were centrifuged at 12,000 RPM for 10 min to precipitate proteins. Supernatants were transferred to micro centrifuge tubes and stored for LC/MS/MS analysis of the degradation half-life of the test compounds.

Row | Compound | % increase of HLM degradation half-life (50%-150%) | other results
1 | [2H]C([2H])(Cl)C([2H])([2H])N(C([2H])([2H])C([2H])([2H])Cl)P1(=O)NCCCO1 (stereo not shown) [Example 1, d8-Bis-(2-chloro-ethyl)-(2-oxo-2λ^5-[1,3,2]oxazaphosphinan-2yl)-amine] |  | % increase of HLM degradation half-life (column −25%-0%): + (−25%-0%)
2 | [2H]C1([2H])CCNP(=O)(N(CCCl)CCCl)O1 (stereo not shown) [Example 2, Bis-(2-chloro-ethyl)-(d2-2-oxo-2λ^5-[1,3,2]oxazaphosphinan-2yl)-amine] | + (50%-150%) | 
3 | [2H]C1([2H])CCNP(=O)(N(C([2H])([2H])C([2H])([2H])Cl)C([2H])([2H])C([2H])([2H])Cl)O1 (stereo not shown) [Example 3, d8-Bis-(2-chloro-ethyl)-(d2-2-oxo-2λ^5-[1,3,2]oxazaphosphinan-2yl)amine] | + (50%-150%) | 
4 | [2H]C1([2H])CCOP(=O)(N(C([2H])([2H])C([2H])([2H])Cl)C([2H])([2H])C([2H])([2H])Cl)N1 (stereo not shown) [Example 5, d8-Bis-(2-chloro-ethyl)-(2-oxo-2λ^5-[1,3,2]oxazaphosphinan-2yl)-d2-amine] |  | % increase of HLM degradation half-life (0%-50%): + (0%-50%)
